According to ChEMBL document CHEMBL4732263 (Bioorg Med Chem, 2021):
Converted amounts (≈) assume the structure as drawn.

Columns and labels:
in vitro [1] = settings: human, liver microsomes
[2] = Plasma clearance in Balb/C mouse at 2.6 mg/kg, iv up to 24 hrs by LC-MS analysis; type: ADME, organism-based
[3] = Drug metabolism in Sprague-Dawley rat at 3.9 mg/kg, iv by LC-MS analysis; type: ADME, organism-based; settings: in vivo
in vitro [4] = settings: Balb/C, mouse, plasma; at 1 µg/mL
cells = settings: Homo sapiens, HEK293, 10 min
[5] = octanol/water, pH 7.4
[6] = molecular target: Sodium channel protein type 5 subunit alpha (Homo sapiens, UniProt Q14524)
in vitro [7] = settings: Balb/C, mouse, plasma; at 1 µg/mL; remark: listed apart in the source
[8] = mouse, microsomes, 1 h, 1 µM
[9] = Volume of distribution at steady state in Sprague-Dawley rat plasma at 3.9 mg/kg, iv up to 24 hrs by LC-MS analysis; type: ADME, organism-based; settings: read-out: Vdss
in vitro [10] = settings: human, Caco-2
[11] = Clearance in Sprague-Dawley rat renal blood at 3.9 mg/kg, iv up to 24 hrs by LC-MS analysis; type: ADME, organism-based; settings: whole blood
[12] = Ratio of drug level in blood to plasma in Sprague-Dawley rat at 3.9 mg/kg, iv up to 24 hrs by LC-MS analysis by LC-MS analysis; type: ADME, organism-based; settings: whole blood and plasma
[13] = Volume of distribution at steady state in Sprague-Dawley rat blood at 3.9 mg/kg, iv up to 24 hrs by LC-MS analysis; type: ADME, organism-based; settings: whole blood, read-out: Vdss
[14] = Volume of distribution at steady state in Balb/C mouse plasma at 2.6 mg/kg, iv up to 24 hrs by LC-MS analysis; type: ADME, organism-based; settings: read-out: Vdss
[15] = Apparent half life in Balb/C mouse at 2.6 mg/kg, iv up to 24 hrs by LC-MS analysis; type: ADME, organism-based; settings: in vivo, read-out: t1/2(app) (converted)
in vitro [16] = settings: human, Caco-2; remark: listed apart in the source
[17] = Plasma clearance in Sprague-Dawley rat at 3.9 mg/kg, iv up to 24 hrs by LC-MS analysis; type: ADME, organism-based
in vitro [18] = settings: mouse, liver microsomes
in vitro [19] = settings: human, Caco-2; remark: listed apart in the source
in vitro [20] = settings: human, liver microsomes; remark: listed apart in the source
[21] = Clearance in Sprague-Dawley rat blood at 3.9 mg/kg, iv up to 24 hrs by LC-MS analysis; type: ADME, organism-based; settings: whole blood
[22] = Volume of distribution at steady state in Balb/C mouse blood at 2.6 mg/kg, iv up to 24 hrs by LC-MS analysis; type: ADME, organism-based; settings: whole blood, read-out: Vdss
physchem [23] = settings: PBS, pH 6.5, pH 6.5
[24] = Half life in Sprague-Dawley rat at 3.9 mg/kg, iv up to 24 hrs by LC-MS analysis; type: ADME, organism-based; settings: in vivo
[25] = molecular target: Voltage-gated inwardly rectifying potassium channel KCNH2 (Homo sapiens, UniProt Q12809)
[26] = Drug excretion in Sprague-Dawley rat urine at 3.9 mg/kg, iv up to 24 hrs by LC-MS analysis; type: ADME, organism-based; settings: read-out: Drug excretion
in vitro [27] = settings: mouse, liver microsomes; remark: listed apart in the source
[28] = mouse, blood, 2 h; at 1 µg/mL
[29] = Clearance in Balb/C mouse blood at 2.6 mg/kg, iv up to 24 hrs by LC-MS analysis; type: ADME, organism-based; settings: whole blood
in vivo = settings: Balb/C, mouse, po, at 1.9 to 3.5 mg/kg
[30] = AUC(0 to infinity) in Sprague-Dawley rat plasma at 3.9 mg/kg, iv up to 24 hrs by LC-MS analysis; type: ADME, organism-based; parameters: route intravenous, dose 3.9 mg/kg, time <=24
physchem [31] = settings: HCl, pH 2, pH 2
[32] = AUC(0 to infinity) in Balb/C mouse plasma at 2.6 mg/kg, iv up to 24 hrs by LC-MS analysis; type: ADME, organism-based; parameters: route intravenous, dose 2.6 mg/kg, time <=24
[33] = human, microsomes, 1 h, 1 µM
[34] = Ratio of drug level in blood to plasma in Balb/C mouse plasma at 2.6 mg/kg, iv up to 24 hrs by LC-MS analysis; type: ADME, organism-based; settings: blood and plasma
in vitro [35] = settings: human, Caco-2; remark: listed apart in the source
in vitro [36] = settings: human, Caco-2; remark: listed apart in the source
[37] = Plasma clearance in Sprague-Dawley rat at 2.5 mg/kg, iv up to 24 hrs by LC-MS analysis; type: ADME, organism-based
[38] = AUC(0 to infinity) in Sprague-Dawley rat plasma at 2.5 mg/kg, iv up to 24 hrs by LC-MS analysis; type: ADME, organism-based; parameters: route intravenous, dose 2.5 mg/kg, time <=24
[39] = Ratio of drug level in blood to plasma in Balb/C mouse plasma at 2.5 mg/kg, iv up to 24 hrs by LC-MS analysis; type: ADME, organism-based; settings: whole blood and plasma
[40] = Volume of distribution at steady state in Sprague-Dawley rat plasma at 2.5 mg/kg, iv up to 24 hrs by LC-MS analysis; type: ADME, organism-based; settings: read-out: Vdss
[41] = Clearance in Sprague-Dawley rat blood at 2.5 mg/kg, iv up to 24 hrs by LC-MS analysis; type: ADME, organism-based; settings: whole blood
[42] = Volume of distribution at steady state in Balb/C mouse plasma at 2.5 mg/kg, iv up to 24 hrs by LC-MS analysis; type: ADME, organism-based; settings: read-out: Vdss
[43] = Plasma clearance in Balb/C mouse at 2.5 mg/kg, iv up to 24 hrs by LC-MS analysis; type: ADME, organism-based
[44] = Drug metabolism in Sprague-Dawley rat assessed amiloride formation at 2.5 mg/kg, iv after 4.8 mins by LC-MS analysis; type: ADME, organism-based; settings: in vivo, 0.08 h
[45] = Clearance in Sprague-Dawley rat renal blood at 2.5 mg/kg, iv up to 24 hrs by LC-MS analysis; type: ADME, organism-based; settings: whole blood
[46] = Drug excretion in Sprague-Dawley rat urine at 2.5 mg/kg, iv up to 24 hrs by LC-MS analysis; type: ADME, organism-based; settings: read-out: Drug excretion
[47] = AUC(0 to infinity) in Balb/C mouse plasma at 2.5 mg/kg, iv up to 24 hrs by LC-MS analysis; type: ADME, organism-based; parameters: route intravenous, dose 2.5 mg/kg, time <=24
[48] = Ratio of drug level in blood to plasma in Sprague-Dawley rat at 2.5 mg/kg, iv up to 24 hrs by LC-MS analysis by LC-MS analysis; type: ADME, organism-based; settings: blood and plasma
[49] = Apparent half life in Balb/C mouse at 2.5 mg/kg, iv up to 24 hrs by LC-MS analysis; type: ADME, organism-based; settings: in vivo, read-out: t1/2(app) (converted)
[50] = Volume of distribution at steady state in Balb/C mouse blood at 2.5 mg/kg, iv up to 24 hrs by LC-MS analysis; type: ADME, organism-based; settings: whole blood, read-out: Vdss
[51] = Clearance in Balb/C mouse blood at 2.5 mg/kg, iv up to 24 hrs by LC-MS analysis; type: ADME, organism-based; settings: whole blood
[52] = Half life in Sprague-Dawley rat at 2.5 mg/kg, iv up to 24 hrs by LC-MS analysis; type: ADME, organism-based; settings: in vivo
[53] = Volume of distribution at steady state in Sprague-Dawley rat blood at 2.5 mg/kg, iv up to 24 hrs by LC-MS analysis; type: ADME, organism-based; settings: whole blood, read-out: Vdss

Sodium channel protein type 5 subunit alpha, sequence (Q14524 whole entry): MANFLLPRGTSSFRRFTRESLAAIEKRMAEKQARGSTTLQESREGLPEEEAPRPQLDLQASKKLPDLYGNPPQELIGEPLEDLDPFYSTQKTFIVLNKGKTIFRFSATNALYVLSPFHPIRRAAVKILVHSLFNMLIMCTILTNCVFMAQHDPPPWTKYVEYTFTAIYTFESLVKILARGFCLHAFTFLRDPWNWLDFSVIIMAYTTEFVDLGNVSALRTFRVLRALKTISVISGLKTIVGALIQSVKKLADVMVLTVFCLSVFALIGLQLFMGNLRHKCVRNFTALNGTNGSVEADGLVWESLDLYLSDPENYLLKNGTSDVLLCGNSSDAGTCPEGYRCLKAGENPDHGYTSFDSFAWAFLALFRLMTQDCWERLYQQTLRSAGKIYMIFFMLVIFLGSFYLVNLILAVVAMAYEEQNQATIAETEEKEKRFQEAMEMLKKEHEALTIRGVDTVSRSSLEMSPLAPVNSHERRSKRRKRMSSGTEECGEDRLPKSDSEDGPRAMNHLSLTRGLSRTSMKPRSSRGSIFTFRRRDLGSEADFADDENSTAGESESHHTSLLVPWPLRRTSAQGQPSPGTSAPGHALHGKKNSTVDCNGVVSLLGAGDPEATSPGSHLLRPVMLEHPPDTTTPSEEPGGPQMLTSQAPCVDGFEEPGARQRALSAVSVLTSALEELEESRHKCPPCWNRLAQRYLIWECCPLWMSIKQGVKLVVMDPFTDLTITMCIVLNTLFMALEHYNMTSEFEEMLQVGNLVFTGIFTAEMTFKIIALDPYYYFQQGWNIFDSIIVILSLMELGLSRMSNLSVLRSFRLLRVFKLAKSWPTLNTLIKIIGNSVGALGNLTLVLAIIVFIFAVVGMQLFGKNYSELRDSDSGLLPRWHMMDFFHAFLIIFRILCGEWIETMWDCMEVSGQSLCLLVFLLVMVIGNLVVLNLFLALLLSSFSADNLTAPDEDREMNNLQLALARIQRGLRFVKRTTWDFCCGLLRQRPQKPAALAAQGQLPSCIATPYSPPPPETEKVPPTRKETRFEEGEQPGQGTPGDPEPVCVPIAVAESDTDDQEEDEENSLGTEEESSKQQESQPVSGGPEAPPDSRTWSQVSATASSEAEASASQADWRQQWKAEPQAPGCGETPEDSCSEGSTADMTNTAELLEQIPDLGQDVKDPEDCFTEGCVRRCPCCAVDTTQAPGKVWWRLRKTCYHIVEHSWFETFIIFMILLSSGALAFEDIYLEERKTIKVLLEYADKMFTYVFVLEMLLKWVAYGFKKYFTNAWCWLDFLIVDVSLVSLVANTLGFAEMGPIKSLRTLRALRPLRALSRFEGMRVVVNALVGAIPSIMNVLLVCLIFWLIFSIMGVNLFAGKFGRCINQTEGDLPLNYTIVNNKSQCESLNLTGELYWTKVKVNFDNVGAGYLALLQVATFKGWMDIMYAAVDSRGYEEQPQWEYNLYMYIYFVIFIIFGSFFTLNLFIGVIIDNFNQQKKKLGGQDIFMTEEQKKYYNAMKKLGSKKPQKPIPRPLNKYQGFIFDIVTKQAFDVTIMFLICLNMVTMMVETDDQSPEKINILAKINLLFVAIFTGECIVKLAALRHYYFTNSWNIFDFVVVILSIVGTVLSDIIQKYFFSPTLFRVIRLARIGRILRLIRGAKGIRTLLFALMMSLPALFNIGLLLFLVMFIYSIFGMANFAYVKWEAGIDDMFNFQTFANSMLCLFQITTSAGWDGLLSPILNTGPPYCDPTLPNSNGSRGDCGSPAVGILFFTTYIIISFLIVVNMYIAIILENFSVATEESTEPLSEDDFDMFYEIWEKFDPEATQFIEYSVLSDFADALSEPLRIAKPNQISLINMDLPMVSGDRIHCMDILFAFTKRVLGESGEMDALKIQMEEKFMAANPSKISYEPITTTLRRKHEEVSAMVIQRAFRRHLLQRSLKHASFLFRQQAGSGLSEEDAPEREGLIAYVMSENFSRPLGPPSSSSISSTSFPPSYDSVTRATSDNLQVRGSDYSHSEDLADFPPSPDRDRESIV
Voltage-gated inwardly rectifying potassium channel KCNH2, sequence (Q12809 whole entry): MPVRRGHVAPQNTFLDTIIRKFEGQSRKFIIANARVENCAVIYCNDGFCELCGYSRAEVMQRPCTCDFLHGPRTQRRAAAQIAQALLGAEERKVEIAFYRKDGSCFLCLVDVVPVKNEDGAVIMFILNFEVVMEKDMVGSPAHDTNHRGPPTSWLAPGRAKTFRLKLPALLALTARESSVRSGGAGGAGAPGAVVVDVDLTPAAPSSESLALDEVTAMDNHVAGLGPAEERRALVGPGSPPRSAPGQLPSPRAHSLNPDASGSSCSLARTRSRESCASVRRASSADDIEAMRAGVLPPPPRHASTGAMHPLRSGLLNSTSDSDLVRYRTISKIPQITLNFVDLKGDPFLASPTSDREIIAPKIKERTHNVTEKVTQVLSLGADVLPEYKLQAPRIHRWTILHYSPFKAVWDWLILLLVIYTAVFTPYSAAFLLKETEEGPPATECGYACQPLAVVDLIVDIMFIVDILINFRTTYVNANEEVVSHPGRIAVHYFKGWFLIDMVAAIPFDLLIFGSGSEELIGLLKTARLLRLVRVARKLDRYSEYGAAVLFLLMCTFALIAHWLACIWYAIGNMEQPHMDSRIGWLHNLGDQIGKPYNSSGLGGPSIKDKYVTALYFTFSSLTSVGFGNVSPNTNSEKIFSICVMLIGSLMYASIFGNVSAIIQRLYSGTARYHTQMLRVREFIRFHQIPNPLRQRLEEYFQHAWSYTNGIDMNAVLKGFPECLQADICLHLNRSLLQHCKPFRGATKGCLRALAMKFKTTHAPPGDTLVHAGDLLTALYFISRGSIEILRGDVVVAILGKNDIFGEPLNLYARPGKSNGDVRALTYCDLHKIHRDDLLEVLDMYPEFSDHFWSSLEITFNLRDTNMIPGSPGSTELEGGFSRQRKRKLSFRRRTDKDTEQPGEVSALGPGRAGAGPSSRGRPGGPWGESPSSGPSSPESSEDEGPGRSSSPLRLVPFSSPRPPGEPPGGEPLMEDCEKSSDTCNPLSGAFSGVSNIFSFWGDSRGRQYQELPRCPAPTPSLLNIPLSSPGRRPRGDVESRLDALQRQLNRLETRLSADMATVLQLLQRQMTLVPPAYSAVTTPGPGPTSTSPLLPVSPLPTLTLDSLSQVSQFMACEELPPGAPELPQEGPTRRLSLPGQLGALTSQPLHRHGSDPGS

In the case of `N=C(N)NC(=O)c1nc(-c2cc3ccccc3o2)c(N2CCCCCC2)nc1N`, the microsomal CLint at 1 h, 1 µM (in vitro [1]) is reported as 26 µL/min/mg, the clearance [2] is reported as 4.26 L/h/kg and the Drug metabolism [3] is reported as “Metabolite_Notdetected”. It also gave a fraction unbound at […], 1 ug/ml (in vitro [4]) of 0.02, an IC50 (cells) of less than 3 µM and a logD [5] of 5.1. The IC50 [6] was less than 3 µM, the metabolised at 4 h, 1 ug/ml (in vitro [7]) was less than 6% and the CL free [8] was 888 µL/min/mg. The Vd [9] was 12.4 L/kg, the Papp A→B at 2 h, 20 µM (in vitro [10]) was 3 nm/s and the CL renal at 24 h [11] was 0.0006 L/h/kg. It also gave a blood plasma ratio at 24 h [12] of 1.4, a Vd [13] of 8.6 L/kg and a Vd [14] of 2.3 L/kg. It also gave a half-life [15] of 1.7 h, a recovery at 2 h, 20 µM (in vitro [16]) of 29% and a clearance [17] of 3.41 L/h/kg. It also gave a microsomal CLint at 1 h, 1 µM (in vitro [18]) of 73 µL/min/mg, a Papp B→A at 2 h, 20 µM (in vitro [19]) of 120 nm/s and a half-life at 1 h, 1 µM (in vitro [20]) of 1.13 h. For the same compound, the clearance [21] was 2.37 L/h/kg, the Vd [22] was 1.7 L/kg and the solubility kinetic (physchem [23]) was 0.0016 mg/mL (≈ 4.07 µM). The half-life [24] was 7 h, the IC50 [25] was less than 3 µM and the dose excreted at 24 h [26] was 0.02%. The half-life at 1 h, 1 µM (in vitro [27]) was 0.4 h, the Stabilty [28] was “Unstable” and the clearance [29] was 3.18 L/h/kg. It also gave a bioavailability at 24 h (in vivo) of less than 5%, an AUC(0-inf) [30] of 2900 nM·h and a solubility kinetic (physchem [31]) of 0.0125 mg/mL (≈ 31.8 µM). It also gave an AUC(0-inf) [32] of 1600 nM·h, a CL free [33] of 888 µL/min/mg and a blood plasma ratio at 24 h [34] of 1.4. For the same compound, the efflux ratio at 2 h, 20 µM (in vitro [35]) was 40 and the recovery at 2 h, 20 µM (in vitro [36]) was 76%.
For `N=C(N)NC(=O)c1nc(Cl)c(N2CCCCCC2)nc1N` [N,N-HEXAMETHYLENEAMILORIDE], the microsomal CLint at 1 h, 1 µM (in vitro [1]) was 24 µL/min/mg, the clearance [37] was 5.01 L/h/kg and the fraction unbound at […], 1 ug/ml (in vitro [4]) was 0.03. For the same compound, the IC50 (cells) was 8.3 µM, the AUC(0-inf) [38] was 1600 nM·h and the logD [5] was 3.8. The IC50 [6] was 30 µM, the metabolised at 4 h, 1 ug/ml (in vitro [7]) was less than 6% and the CL free [8] was 2243 µL/min/mg. The Papp A→B at 2 h, 20 µM (in vitro [10]) was 150 nm/s, the blood plasma ratio at 24 h [39] was 1.5 and the Vd [40] was 5.3 L/kg. It also gave a recovery at 2 h, 20 µM (in vitro [16]) of 79%, a microsomal CLint at 1 h, 1 µM (in vitro [18]) of 726 µL/min/mg and a Papp B→A at 2 h, 20 µM (in vitro [19]) of 560 nm/s. The clearance [41] was 2.77 L/h/kg, the half-life at 1 h, 1 µM (in vitro [20]) was 1.22 h and the Vd [42] was 2 L/kg. For the same compound, the solubility kinetic (physchem [23]) was 0.05 mg/mL (≈ 160 µM), the clearance [43] was 5.16 L/h/kg and the Drug metabolism [44] was “Metabolite_Detected”. It also gave an IC50 [25] of 3.3 µM, a CL renal at 24 h [45] of 0.012 L/h/kg and a dose excreted at 24 h [46] of 0.5%. It also gave an AUC(0-inf) [47] of 1500 nM·h, a half-life at 1 h, 1 µM (in vitro [27]) of 0.04 h and a blood plasma ratio at 24 h [48] of 1.8. For the same compound, the Stabilty [28] was “Unstable”, the bioavailability at 24 h (in vivo) was 4.5% and the solubility kinetic (physchem [31]) was greater than 0.1 mg/mL. It also gave a half-life [49] of 0.62 h, a Vd [50] of 1.4 L/kg and a clearance [51] of 3.54 L/h/kg. The CL free [33] was 74 µL/min/mg, the half-life [52] was 3.2 h and the efflux ratio at 2 h, 20 µM (in vitro [35]) was 3.8. It also gave a Vd [53] of 2.9 L/kg and a recovery at 2 h, 20 µM (in vitro [36]) of 100%.
